For this assay, the target named is human MGL from HeLa cells (Homo sapiens (Human), UniProt Q99685). The assay is described as follows: MGL in vitro activity assay ([glycerol-1,3-3H]-oleoyl glycerol cleavage, activated carbon filter). It counts as biochemical. To be noted: 300 nM [Glycerol-1,3-3H]-oleoyl glycerol, endogenously expressed MGL from HeLa cells, one hour incubation; read-out: MGL IC50. In a few lines: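 Endogenous MGL in HeLa cells or homogenates was incubated with compound and 300 nM [glycerol-1,3-3H]-oleoyl glycerol for one hour. Reactions were filtered through activated carbon, and tritiated glycerol in the flow-through was counted as a measure of activity.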
Chain of human MGL from HeLa cells (Q99685 whole entry): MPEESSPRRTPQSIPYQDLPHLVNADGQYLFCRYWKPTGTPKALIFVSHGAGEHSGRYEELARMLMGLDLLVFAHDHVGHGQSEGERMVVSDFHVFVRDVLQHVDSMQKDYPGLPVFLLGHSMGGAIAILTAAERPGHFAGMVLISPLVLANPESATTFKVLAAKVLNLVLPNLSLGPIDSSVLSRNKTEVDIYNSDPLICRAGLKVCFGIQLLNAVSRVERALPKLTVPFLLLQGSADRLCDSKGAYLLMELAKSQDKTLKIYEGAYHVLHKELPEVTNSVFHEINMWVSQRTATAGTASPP

Turning to `CCc1ccc([C@H]2[C@@H]3CN(C(=O)[C@H]4C[C@]5(CCC(=O)N5)C4)C[C@@H]32)cc1` [Example 87, (2r,4S)-2-((1R,5S,6S)-6-(4-Ethylphenyl)-3-azabicyclo[3.1.0]hexane-3-carbonyl)-5-azaspiro[3.4]octan-6-one], the half-maximal inhibitory concentration (IC50) (usually the point on the concentration scale where inhibition reaches its midpoint) was determined as 131 nM. For `Cc1ccc([C@H]2[C@@H]3CN(C(=O)[C@H]4C[C@]5(COC(=O)N5)C4)C[C@@H]32)cc1C` [Example 88, (2s,4S)-2-((1R,5S,6S)-6-(3,4-Dimethylphenyl)-3-azabicyclo[3.1.0]hexane-3-carbonyl)-7-oxa-5-azaspiro[3.4]octan-6-one] the value was 29 nM; for `Cc1ccc([C@H]2[C@@H]3CN(C(=O)[C@H]4C[C@]5(CCC(=O)N5)C4)C[C@@H]32)cc1C` [Example 89, (2r,4S)-2-((1R,5S,6S)-6-(3,4-Dimethylphenyl)-3-azabicyclo[3.1.0]hexane-3-carbonyl)-5-azaspiro[3.4]octan-6-one], 178 nM; for `CC(C)c1ccc([C@H]2[C@@H]3CN(C(=O)[C@H]4C[C@]5(COC(=O)N5)C4)C[C@@H]32)cc1` [Example 90, (2s,4S)-2-((1R,5S,6S)-6-(4-Isopropylphenyl)-3-azabicyclo[3.1.0]hexane-3-carbonyl)-7-oxa-5-azaspiro[3.4]octan-6-one], 2.8 nM. For `CC(C)c1ccc([C@H]2[C@@H]3CN(C(=O)[C@H]4C[C@]5(CCC(=O)N5)C4)C[C@@H]32)cc1` [Example 91, (2r,4S)-2-((1R,5S,6S)-6-(4-Isopropylphenyl)-3-azabicyclo[3.1.0]hexane-3-carbonyl)-5-azaspiro[3.4]octan-6-one] the value was 20 nM; for `Cc1ccccc1[C@H]1[C@@H]2CN(C(=O)[C@H]3C[C@]4(COC(=O)N4)C3)C[C@@H]21` [Example 98, (2s,4S)-2-((1R,5S,6S)-6-(o-Tolyl)-3-azabicyclo[3.1.0]hexane-3-carbonyl)-7-oxa-5-azaspiro[3.4]octan-6-one], 150 nM; for `CC(C)Cc1cccc([C@H]2[C@@H]3CN(C(=O)[C@H]4C[C@]5(COC(=O)N5)C4)C[C@@H]32)c1` [Example 101, (2s,4S)-2-((1R,5S,6S)-6-(3-Isobutylphenyl)-3-azabicyclo[3.1.0]hexane-3-carbonyl)-7-oxa-5-azaspiro[3.4]octan-6-one], 1.5 nM. Under `CC(C)(CO)c1cccc([C@H]2[C@@H]3CN(C(=O)[C@H]4C[C@]5(COC(=O)N5)C4)C[C@@H]32)c1` [Example 104, (2s,4S)-2-((1R,5S,6S)-6-(3-(1-Hydroxy-2-methylpropan-2-yl)phenyl)-3-azabicyclo[3.1.0]hexane-3-carbonyl)-7-oxa-5-azaspiro[3.4]octan-6-one] stands 19 nM; under `CC(C)(C(=O)O)c1cccc([C@H]2[C@@H]3CN(C(=O)[C@H]4C[C@]5(COC(=O)N5)C4)C[C@@H]32)c1` [Example 105], 300 nM. As for `Cc1cc(C2CC2)ccc1[C@H]1[C@@H]2CN(C(=O)[C@H]3C[C@]4(COC(=O)N4)C3)C[C@@H]21` [Example 109, (2s,4S)-2-((1R,5S,6S)-6-(4-Cyclopropyl-2-methylphenyl)-3-azabicyclo[3.1.0]hexane-3-carbonyl)-7-oxa-5-azaspiro[3.4]octan-6-one], the 50% inhibitory concentration (IC50) was found to be 1.6 nM.

As for `Cc1ccc([C@H]2[C@@H]3CN(C(=O)[C@H]4C[C@]5(COC(=O)N5)C4)C[C@@H]32)cc1Cl` [Example 110, (2s,4S)-2-((1R,5S,6S)-6-(3-Chloro-4-methylphenyl)-3-azabicyclo[3.1.0]hexane-3-carbonyl)-7-oxa-5-azaspiro[3.4]octan-6-one], the IC50 came out at 17 nM. Consider `CCc1cc([C@H]2[C@@H]3CN(C(=O)[C@H]4C[C@]5(COC(=O)N5)C4)C[C@@H]32)ccc1F` [Example 111, (2s,4S)-2-((1R,5S,6S)-6-(3-Ethyl-4-fluorophenyl)-3-azabicyclo[3.1.0]hexane-3-carbonyl)-7-oxa-5-azaspiro[3.4]octan-6-one], for which the concentration for half-maximal inhibition (IC50) is 11 nM. With `Cc1c([C@H]2[C@@H]3CN(C(=O)[C@H]4C[C@]5(COC(=O)N5)C4)C[C@@H]32)cccc1C(F)(F)F` [Example 113], the concentration for half-maximal inhibition (IC50) was determined as 78 nM.

On to `Cc1ccc([C@H]2[C@@H]3CN(C(=O)[C@H]4C[C@]5(COC(=O)N5)C4)C[C@@H]32)cc1OC(F)(F)F` [Example 115, (2s,4S)-2-((1R,5S,6S)-6-(4-Methyl-3-(trifluoromethoxy)phenyl)-3-azabicyclo[3.1.0]hexane-3-carbonyl)-7-oxa-5-azaspiro[3.4]octan-6-one], for which the half-maximal inhibitory concentration (IC50) was 5.2 nM. For `CC(C)(C)c1cccc([C@H]2[C@@H]3CN(C(=O)[C@H]4C[C@]5(COC(=O)N5)C4)C[C@@H]32)n1` [Example 116, (2s,4S)-2-((1R,5S,6R)-6-(6-(tert-Butyl)pyridin-2-yl)-3-azabicyclo[3.1.0]hexane-3-carbonyl)-7-oxa-5-azaspiro[3.4]octan-6-one], the IC50 turned out to be 5.2 nM.
